We go through eleven compounds from patent US4093734A, “Amino-benzoic acid amides” (Boehringer Ingelheim GmbH, priority 1975, dated 1978).

In data set [1] the test system is hindlimb tonic extensor component of the maximal seizure pattern. The data set is described as follows: Anticonvulsive activity in mice (maximal electroshock seizure). Type of data set: in vivo. The note with it: Mus musculus, po, p.o. The procedure: Male mice with body weights between 20 and 26 gm were used as experimental animals. They were allowed free access to food (Altromin®) and water up to one hour before administration of the test compound. Tests were carried out by using the maximal electroshock seizure pattern[Swinyard, Brown and Goodman, J. Pharmacol. exp. Ther. 106, 319 (1952)]. The electroshock apparatus was constructed according to Woodbury and Davenport […]. The electric impulses (50 Hz A.C., 50 mA, 0.2 sec) were delivered via steel ball electrodes covered with buckskin and moistened with 0.9% sodium chloride solution placed on the heads and over the eyes of the mice. The test is a measure of the ability of anticonvulsive drugs to abolish the hindlimb tonic extensor component of the maximal seizure pattern induced by electric stimulation. The test compound was administered either as the free base or as the hydrochloride. The free base was suspended in 1% tylose, and the hydrochloride was dissolved in distilled water. […] Control groups received only the suspension agent or solvent orally. 30, 150 and 300 minutes after administration all animals were shocked.
In general terms: Protection in the maximal electroshock model is a classic sign of anticonvulsant action.

Data set [2] has as its system drinking frequency of thirsty animals. Nature of the data set: Anxiolytic activity (drinking frequency of thirsty naive rats, electro-shock). The conditions noted are these: 10 mgm/kg orally, one hour before testing; for Shocks/animal, Treated animals: 3-minute session; for Shocks/animal, Difference (treated animals vs controls): ^+ significant difference compared with control group, (A, C, H, I, K), ° difference compared with control group, p >0.1 (B, D, E, F, J), G unmarked. Type of data set: in vivo. The procedure: In their experiments, the drinking frequency of thirsty animals served as a measure for anxiety-relieving effects. Female rats with body weights between 150 and 170 gm were used as experimental animals. Food was available at all times, whereas they were deprived of water for 48 hours prior to the test session. The test apparatus was an opaque plastic box (24 × 24 × 22 cm), provided with a plexiglass cover and a […] floor. The metal drinking tube of a 250 ml-bottle covered with a hard plastic projected 2 cm from the wall into the box, the tube being attached to one side at a height of 6.5 cm. A piece of 0.2 cm at the tip of the tube was not plastic-covered. An electrical circuit was connected between the tube and the grid floor. Whenever a rat closed the circuit by licking the tube, each lick was counted electronically. At every 20th lick the animal received an electro-shock (40 V, 10 mA A.C.) via the tube ending and the grid. After the first 20 licks a time-counter was switched on, finishing the test after 3 minutes. Within this period the drinking frequency of each animal was recorded as the number of shocks delivered during the 3-minute session. […] The control groups received only the solvent or suspension agent. Statistical comparisons were made, using the Mann-Whitney-U-test (Siegel: Nonparametric Statistics, McGraw-Hill, 1956).

Data set [3] in a line: Acute toxicity in the mouse after intravenous administration. The note with it: in vivo, i.v., mice, observed 14 days. The procedure: 5 female and 5 male mice per dose, with body weights between 20 and 26 gm, served as test animals. The animals had access to food and drinking water ad libitum.
Compounds D, E, I and J were dissolved in distilled water, compounds A, B and C in 0.2% tartaric acid, and compound G in 15% propylene glycol.
The injected volume at the dosage level of 50 mgm/kg i.v. amounted to 0.1 ml/10 gm of animal. When the dosage was increased or diminished by 10 mgm/kg i.v., the volume was increased or diminished by […], respectively. Control groups of 10 animals each were only treated with the solvent.
The LD50 -values were determined according to the graphic-statistical method of Litchfield and Wilcoxon [(J. Pharmacol. exp. Therap. 96, 99, (1949)].

[4] abbreviates: 0.5 h, 30 min. after administration.
Where [5] appears, read: 2.5 h, 150 min. after administration.
[6] abbreviates: 5 h, 300 min. after administration.

Structures can show the parent of a compound that is named as a salt.

Broadly, the ED50 is the dose that gives a 50% effect, or the effect in half of the subjects. Read a low ED50 as greater potency. As usually defined, the LD50 is the dose at which mortality reaches 50%. Low readings indicate greater toxicity, high ones lower toxicity. On to `CCN1CCCC1CNC(=O)c1cc(C)cc(Cl)c1N` (stereo not drawn) [A, N-[1-ethyl-pyrrolidyl-(2)-methyl]-2-amino-3-chloro-5-methyl-benzoic acid amide], for which the ED50 in data set [1] (setting [4]) was 28 mg/kg; in data set [1] (setting [5]), 60 mg/kg; in data set [1] (setting [6]), 102 mg/kg. The “Shocks/animal, Treated animals” value in data set [2] came to 7.1 Shocks/animal. Besides, the “Shocks/animal, Difference (treated animals vs controls)” value (from here on “Shocks/animal, Difference”) in data set [2] turned out to be 3.6 Shocks/animal. The median lethal dose (LD50) at 336 h in data set [3] came out at 28.6 mg/kg.
With `CCN1CCCC1CNC(=O)c1cc([N+](=O)[O-])cc(Cl)c1N` (stereo not drawn) [B, N-[1-ethyl-pyrrolidyl-(2)-methyl]-2-amino-3-chloro-5-nitro-benzoic acid amide], the values for the ED50 in data set [1] (setting [4]), in data set [1] (setting [5]) and in data set [1] (setting [6]) were 78 mg/kg, 130 mg/kg and 178 mg/kg, respectively. Moreover, the “Shocks/animal, Treated animals” value in data set [2] is 4.9 Shocks/animal. In data set [2], the “Shocks/animal, Difference” value came out at 1.2 Shocks/animal. Further, the LD50 at 336 h in data set [3] amounted to 39 mg/kg.
Take `CCN1CCCC1CNC(=O)c1cc(F)c(N)c(Cl)c1` (stereo not drawn) [Compound C, N-[1-ethyl-pyrrolidyl-(2)-methyl]-4-amino-3-chloro-5-fluoro-benzoic acid amide]: the ED50 in data set [1] (setting [4]) is 37 mg/kg; in data set [1] (setting [5]), 50 mg/kg; in data set [1] (setting [6]), 128 mg/kg. For the same compound, the “Shocks/animal, Treated animals” value in data set [2] stood at 6.7 Shocks/animal. Besides, the “Shocks/animal, Difference” value in data set [2] is recorded as 3.9 Shocks/animal. This compound gave an LD50 at 336 h in data set [3] of 28.5 mg/kg.
In the case of `CCN1CCCC1CNC(=O)c1cc(Cl)cc(Cl)c1N` (stereo not drawn) [D, N-[1-ethyl-pyrrolidyl-(2)-methyl]-2-amino-3,5-dichloro-benzoic acid amide hydrochloride], the figures for the ED50 in data set [1] (setting [4]), in data set [1] (setting [5]) and in data set [1] (setting [6]) were 35 mg/kg, 54 mg/kg and 109 mg/kg, respectively. In data set [2], the “Shocks/animal, Treated animals” value is recorded as 6.8 Shocks/animal. In addition, in data set [2], the “Shocks/animal, Difference” value was found to be 3.1 Shocks/animal. This compound also displayed an LD50 at 336 h in data set [3] of 31.5 mg/kg.
As to `CCN1CCCC1CNC(=O)c1cc(Br)cc(Cl)c1N` (stereo not drawn) [E, N-[1-ethyl-pyrrolidyl-(2)-methyl]-2-amino-5-bromo-3-chloro-benzoic acid amide hydrochloride], the ED50 came out at 44 mg/kg in data set [1] (setting [4]), 68 mg/kg in data set [1] (setting [5]) and 109 mg/kg in data set [1] (setting [6]). In addition, the “Shocks/animal, Treated animals” value in data set [2] is listed as 7.5 Shocks/animal. Besides, the “Shocks/animal, Difference” value in data set [2] is reported as 4.5 Shocks/animal. The compound also came in with an LD50 at 336 h in data set [3] of 25 mg/kg.
With `Cl.Nc1ccc(C(=O)NC2CCCCC2)c(Cl)c1` [F, 4-amino-2-chloro-N-cyclohexyl-benzoic acid amide hydrochloride], the ED50 in data set [1] (setting [4]) worked out at 38 mg/kg; in data set [1] (setting [5]), 50 mg/kg; in data set [1] (setting [6]) it was 116 mg/kg. Also, in data set [2], the “Shocks/animal, Treated animals” value was 5.3 Shocks/animal. Besides, the “Shocks/animal, Difference” value in data set [2] worked out at 2.0 Shocks/animal.
`Cl.Nc1ccc(C(=O)NCc2ccccc2)c(Cl)c1` [G, 4-amino-N-benzyl-2-chloro-benzoic acid amide hydrochloride]: the ED50 in data set [1] (setting [4]) amounted to 68 mg/kg; in data set [1] (setting [5]), 133 mg/kg; in data set [1] (setting [6]), 200 mg/kg. Further, the “Shocks/animal, Treated animals” value in data set [2] is given as 7.1 Shocks/animal. Moreover, the “Shocks/animal, Difference” value in data set [2] is reported as 3.8 Shocks/animal. Further, in data set [3], the LD50 at 336 h was 48 mg/kg.
With `CN(C(=O)c1ccc(N)cc1Cl)C1CCCCC1` [H, 4-amino-2-chloro-N-cyclohexyl-N-methyl-benzoic acid amide], the results for the ED50 in data set [1] (setting [4]), in data set [1] (setting [5]) and in data set [1] (setting [6]) were 200 mg/kg, 155 mg/kg and 200 mg/kg, respectively. The “Shocks/animal, Treated animals” value in data set [2] is listed as 7.8 Shocks/animal. Besides, the “Shocks/animal, Difference” value in data set [2] came out at 4.6 Shocks/animal.
On to `CCN1CCCC1CNC(=O)c1cc(Cl)cc(C(F)(F)F)c1N` (stereo not drawn) [I, N-[1-Ethyl-pyrrolidyl-(2)-methyl]-2-amino-5-chloro-3-trifluoromethyl-benzoic acid amide hydrochloride], for which the figures for the ED50 in data set [1] (setting [4]), in data set [1] (setting [5]) and in data set [1] (setting [6]) were 72 mg/kg, 100 mg/kg and 124 mg/kg, respectively. The “Shocks/animal, Treated animals” value in data set [2] is given as 7.5 Shocks/animal. The “Shocks/animal, Difference” value in data set [2] came to 4.6 Shocks/animal. Further, the LD50 at 336 h in data set [3] was 52.5 mg/kg.
Consider `CCN1CCCC1CNC(=O)c1cc(Cl)c(N)c(C(F)(F)F)c1` (stereo not drawn) [J, N-[1-ethyl-pyrrolidyl-(2)-methyl]-4-amino-3-chloro-5-trifluoromethyl-benzoic acid amide hydrochloride], for which the ED50 in data set [1] (setting [4]) came out at 62 mg/kg; in data set [1] (setting [5]) it was 64 mg/kg; in data set [1] (setting [6]) it was 82 mg/kg. The “Shocks/animal, Treated animals” value in data set [2] is 7.2 Shocks/animal. Further, the “Shocks/animal, Difference” value in data set [2] turned out to be 3.6 Shocks/animal. Moreover, in data set [3], the LD50 at 336 h is 33.5 mg/kg.
With `Nc1c(C(=O)NCc2cccnc2)cc(Cl)cc1C(F)(F)F` [K, 2-amino-5-chloro-N-[pyridyl-(3)-methyl]-3-trifluoromethyl-benzoic acid amide], the ED50 in data set [1] (setting [4]) is greater than 200 mg/kg; in data set [1] (setting [5]), 70 mg/kg; in data set [1] (setting [6]), 73 mg/kg. Also, in data set [2], the “Shocks/animal, Treated animals” value stood at 9.6 Shocks/animal. Also, the “Shocks/animal, Difference” value in data set [2] is reported as 6.1 Shocks/animal.
